Tested on: PLATINUM RESISTANT P388 CELL LINE
Experiment: Anti-tumor activity of DACH-platinum compounds against platinum resistant P388 cell line
Assay type: in vivo
Conditions: initial tumor burden 1.0 × 10^6

Compound: N.N.[Cl][Pt][Cl] [Cisplatin]
- % Increase in Length of Survival (dose 3.5 mg/kg): +3%
- % T/C (dose 3.5 mg/kg): 103.8%
- Log10 Change in Tumor Burden (dose 3.5 mg/kg): +1.7
- Median Day of Death (dose 3.5 mg/kg): 13.5
- % Increase in Length of Survival (dose 5.3 mg/kg): +15%
- % T/C (dose 5.3 mg/kg): 115.4%
- Log10 Change in Tumor Burden (dose 5.3 mg/kg): +1.5
- Median Day of Death (dose 5.3 mg/kg): 15.0
- % Increase in Length of Survival (dose 8.0 mg/kg): +23%
- % T/C (dose 8.0 mg/kg): 123.1%
- Log10 Change in Tumor Burden (dose 8.0 mg/kg): +1.5
- Median Day of Death (dose 8.0 mg/kg): 16.0
